Reference: patent US20080020041A1, “Enteric Coated Compositions that Release Active Ingredient(s) in Gastric Fluid and Intestinal Fluid” (priority 2004, published 2008)
Counter-ions that a name gives are not always drawn. Like-named read-outs stand apart in the source and are kept apart here.

Columns and labels:
[1] = Hydrochlorothiazide bio-study: urinary excretion, urine output and side effects after IR or GRD; format: in vivo, human; settings: same dose, drug released in gastric fluid (GRD)
Experimental: Two formulations for hydrochlorthiazide (an immediate release formulation (IR) and a gastric retention device (GRD) containing sustained release formulations (SR)) were administered in the bio-study (bioavailability study). A commercial tablet containing 50 mg of HCTZ was used as an IR control, and spray-coated beads equivalent to 50 mg of HCTZ were formulated for slow drug release (SR) and included in the GRF. Bioavailability and pharmacodynamics of HCTZ from a GRD were compared to those from an IR.
Monitoring concentrations of hydrochlorthiazide in the urine of healthy adult volunteers allowed comparison of the relative bioavailability of hydrochlorthiazide from the GRD formulation and from a conventional tablet. […] An IR was given once and the GRD was repeated twice to test the reproducibility of the new dosage form. A 50-mg dose was chosen for the study because it was in the range of the recommended dose from the PDR (Physician's Desk References) and it produced concentrations high enough to make HPLC analysis efficient. Six subjects participated in the study, 4 healthy males and 2 healthy females. They were not allowed any food or drink containing caffeine, nor alcohol or other medications. Smokers and vegetarians were not included. […] The volume of urine collected was measured in order to calculate total amount of drug recovered.

[2] = Protocol: All data fittings were performed on data from immediate-release formulations using WinNonlin software, version 3.2 (Pharsight Corporation, Mountain View, Calif.).
[3] = prolonged release wax matrix formulation; cited from earlier work
[4] = cited from earlier work
[5] = fitted from available plasma data (PDR), used in simulations
Text: These parameters are volume of distribution divided by fraction of dose absorbed (V/F), absorption rate constant (ka), and elimination rate constant (kel).

[6] = commercial mixed pellets, cited from earlier work
[7] = 60 mg immediate-release riboflavin, fed subjects; cited from earlier work
[8] = disintegrating tablets from pellets coated with cellulose acetate phthalate; cited from earlier work
[9] = fitted to literature data of immediate-release formulation

With `NS(=O)(=O)c1cc2c(cc1Cl)NCNS2(=O)=O` [Hydrochlorothiazide] as the compound, how does the Adverse reactions reported [1] read?
Its Adverse reactions reported is “No adverse reactions were reported”.

Which results are given for `CNC(=C[N+](=O)[O-])NCCSCc1ccc(CN(C)C)o1` [Ranitidine hydrochloride]?
absorption rate constant ([2]; human, in vivo): 0.641; kel ([2]; human, in vivo): 0.239 h⁻¹

Which results are given for `Cc1cc2nc3c(=O)[nH]c(=O)nc-3n(C[C@H](O)[C@H](O)[C@H](O)COP(=O)(O)O)c2cc1C` [Riboflavin-5-phosphate]?
absorption rate constant [2, 9]: 3.67; kel [2, 9]: 0.32 h⁻¹

For `CC1(C)S[C@@H]2[C@H](NC(=O)[C@H](N)c3ccc(O)cc3)C(=O)N2[C@H]1C(=O)O` [amoxicillin], which “Amoxicillin released in 6 hours” value [3] is on record?
Its value is 19%.

Which “Liberation of bisacodyl in 0.1 M HCl” value ([4]; coating of mixture of Eudagrit L and Eudgrit NE) does the source give for `CC(=O)Oc1ccc(C(c2ccc(OC(C)=O)cc2)c2ccccn2)cc1` [bisacodyl] here?
The value was “approximately 4 % w/w”.

And the “Liberation of bisacodyl in phosphate buffer within 45 min” value ([4]; pH 6.8, polymer 1)?
Its value is 100%.

And the “Liberation of bisacodyl in phosphate buffer within 45 min” value ([4]; pH 6.8, polymer 2)?
The value was 40%.

What about the “Liberation of bisacodyl in phosphate buffer” value ([4]; pH 7.2, polymer 2) of the same compound?
The value was 100%.

What about the “Bisacodyl liberated in acidic media after tableting” value ([4]; pellets coated with 25% w/w of one of the new polymers) of the same compound?
Its value is 4-5 % w/w.

Which results are given for `C[C@H](N)Cc1ccccc1` [d-Amphetamine]?
ka [5]: 0.744 h⁻¹; Observed Cmax ([6]; Fasted, 30 mg): 40.2 ng/mL; Observed Cmax ([6]; Fed, 20 mg): 25.3 ng/mL

For `Cc1cc2nc3c(=O)[nH]c(=O)nc-3n(C[C@H](O)[C@H](O)[C@H](O)CO)c2cc1C` [riboflavin], which Bioavailability [7] is on record?
Its Bioavailability is 36.4%.

Which “Drug liberated within 2 hours in artificial gastric fluid” value [8] does the source give for `Cc1cc(NS(=O)(=O)c2ccc(N)cc2)no1` [sulfametoxazole] here?
Its value is “more than 10%”.
